Activity calls are given as the source filed them. No cut-off for these calls is given here.

In general, inhibition refers to the share of the control response that was lost under treatment. As usually defined, the inhibition in vivo is the drop in the measured response relative to a control, in per cent.

The test system of data set [1] is Mus musculus. Description: Anti-inflammatory activity in Mus musculus Swiss albino (mouse) assessed as inhibition of carrageenan-induced edema at 100 mg/kg, po pretreated 60 min before carrageenan-challenge measured after 180 min. It counts as functional. For orientation: The carrageenan paw model is a standard test of acute inflammation.
For data set [2], the system named is Mus musculus. The data set is described as follows: Gastrointestinal toxicity in Mus musculus Swiss albino (mouse) assessed as ratio of ulcer at 100 mg/kg, po measured after 2 hr. It counts as organism-based. Set-up: dose 100 mg/kg, route oral. Particulars: in vivo.
The target in data set [3] is T1, Polyunsaturated fatty acid 5-lipoxygenase (Homo sapiens) (UniProt P09917).
T1 sequence (whole entry): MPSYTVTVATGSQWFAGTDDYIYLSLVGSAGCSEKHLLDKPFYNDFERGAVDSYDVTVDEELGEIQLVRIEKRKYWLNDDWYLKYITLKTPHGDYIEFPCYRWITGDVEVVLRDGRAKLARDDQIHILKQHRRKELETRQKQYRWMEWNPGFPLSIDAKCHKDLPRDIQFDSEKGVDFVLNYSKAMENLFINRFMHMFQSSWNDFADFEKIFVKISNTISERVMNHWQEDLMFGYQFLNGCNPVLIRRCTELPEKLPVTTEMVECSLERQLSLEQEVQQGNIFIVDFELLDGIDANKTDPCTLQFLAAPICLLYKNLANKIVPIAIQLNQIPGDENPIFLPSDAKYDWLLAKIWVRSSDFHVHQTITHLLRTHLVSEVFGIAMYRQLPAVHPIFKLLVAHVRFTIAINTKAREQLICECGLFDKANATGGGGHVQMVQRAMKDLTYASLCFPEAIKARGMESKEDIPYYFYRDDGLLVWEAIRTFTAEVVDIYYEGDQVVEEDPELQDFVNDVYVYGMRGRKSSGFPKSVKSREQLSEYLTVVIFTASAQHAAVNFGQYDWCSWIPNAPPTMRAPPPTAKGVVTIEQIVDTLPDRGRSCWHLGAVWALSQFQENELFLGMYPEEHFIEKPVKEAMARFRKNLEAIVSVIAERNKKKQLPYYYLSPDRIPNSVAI
The data set is described as follows: Inhibition of 5-LOX (unknown origin) at 10 uM.

Data set [4] has as its system Mus musculus. Description: Analgesic activity in Mus musculus Swiss albino (mouse) assessed as inhibition of p-benzoquinone-induced writhing at 100 mg/kg, po pretreated 60 min before p-benzoquinone challenge. It counts as functional. (In writhing tests, fewer writhes than in controls are read as antinociception.)
Data set [5] deals with Prostaglandin G/H synthase 1 (Homo sapiens) (UniProt P23219). Particulars: Blood, at 10 µM.
Chain of Prostaglandin G/H synthase 1 (Homo sapiens) (P23219 whole entry): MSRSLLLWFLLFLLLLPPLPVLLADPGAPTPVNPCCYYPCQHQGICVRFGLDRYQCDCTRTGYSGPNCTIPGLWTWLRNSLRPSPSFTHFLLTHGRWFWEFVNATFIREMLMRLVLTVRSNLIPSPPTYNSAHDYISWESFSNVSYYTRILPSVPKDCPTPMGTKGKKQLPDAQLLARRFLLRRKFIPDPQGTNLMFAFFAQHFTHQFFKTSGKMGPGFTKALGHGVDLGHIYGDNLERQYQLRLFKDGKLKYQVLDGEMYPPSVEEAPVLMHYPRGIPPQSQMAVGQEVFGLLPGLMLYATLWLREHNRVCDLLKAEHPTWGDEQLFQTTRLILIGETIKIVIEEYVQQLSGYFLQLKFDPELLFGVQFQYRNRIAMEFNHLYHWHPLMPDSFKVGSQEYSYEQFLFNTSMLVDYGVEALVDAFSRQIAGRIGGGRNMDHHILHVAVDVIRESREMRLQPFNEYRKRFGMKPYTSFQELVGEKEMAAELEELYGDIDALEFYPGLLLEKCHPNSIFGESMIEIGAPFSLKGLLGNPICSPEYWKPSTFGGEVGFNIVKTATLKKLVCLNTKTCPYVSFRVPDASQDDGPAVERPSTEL
Description: Inhibition of cyclooxygenase-1 in Homo sapiens (human) whole blood assessed as TXB2 level at 10 uM by EIA
For data set [6], the system named is Mus musculus. The data set is described as follows: Anti-inflammatory activity in Mus musculus Swiss albino (mouse) assessed as inhibition of carrageenan-induced edema at 100 mg/kg, po pretreated 60 min before carrageenan-challenge measured after 360 min. The format is functional.
The test system of data set [7] is Mus musculus. The data set is described as follows: Anti-inflammatory activity in Mus musculus Swiss albino (mouse) assessed as inhibition of carrageenan-induced edema at 100 mg/kg, po pretreated 60 min before carrageenan-challenge measured after 270 min. The format is functional.
In data set [8] the test system is Mus musculus. Description: Anti-inflammatory activity in Mus musculus Swiss albino (mouse) assessed as inhibition of carrageenan-induced edema at 100 mg/kg, po pretreated 60 min before carrageenan-challenge measured after 90 min. The format is functional.
For data set [9], the target named is T2, Prostaglandin G/H synthase 2 (Homo sapiens) (UniProt P35354).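 Note: human whole blood COX-2 activity read out as PGE2 level measured by enzyme immunoassay.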
T2 sequence (whole entry): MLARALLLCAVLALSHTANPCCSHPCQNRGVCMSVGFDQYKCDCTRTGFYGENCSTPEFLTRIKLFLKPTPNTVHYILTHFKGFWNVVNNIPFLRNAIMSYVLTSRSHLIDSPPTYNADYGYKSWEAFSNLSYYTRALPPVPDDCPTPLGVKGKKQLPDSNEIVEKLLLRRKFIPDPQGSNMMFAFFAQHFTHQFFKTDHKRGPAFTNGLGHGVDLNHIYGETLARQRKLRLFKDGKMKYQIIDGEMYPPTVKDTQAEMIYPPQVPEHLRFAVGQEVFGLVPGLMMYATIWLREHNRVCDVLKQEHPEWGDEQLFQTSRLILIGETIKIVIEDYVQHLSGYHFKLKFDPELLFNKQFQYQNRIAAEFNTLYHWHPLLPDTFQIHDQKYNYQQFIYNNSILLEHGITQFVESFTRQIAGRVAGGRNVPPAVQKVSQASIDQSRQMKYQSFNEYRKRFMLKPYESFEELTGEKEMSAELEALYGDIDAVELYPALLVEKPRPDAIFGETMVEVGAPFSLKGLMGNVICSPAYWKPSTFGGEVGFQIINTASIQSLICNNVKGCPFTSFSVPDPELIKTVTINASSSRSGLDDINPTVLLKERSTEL
The following applies: Blood, at 10 µM.
Description: Inhibition of cyclooxygenase-2 in Homo sapiens (human) whole blood assessed as PGE2 level at 10 uM by EIA

Regarding `Cc1ccnc(NC(=O)Cn2c(=O)sc3cc(C(=O)c4ccccc4)ccc32)c1`, the inhibition result in data set [1], in data set [4], in data set [6], in data set [7] and in [8] was “inactive” in each case. Further, the Activity entry in data set [2] was “Toxic”. The results for the inhibition in data set [3], in [5] and in data set [9] were 11%, 50% and 6.83%, respectively.
Take `O=C(Cn1c(=O)sc2cc(C(=O)c3ccccc3)ccc21)Nc1ccccn1`: the inhibition entry in data set [1], in data set [3], in data set [4], in data set [6], in data set [7] and in data set [8] was “inactive” throughout. For the same molecule, in data set [9], the inhibition entry is “inactive”. In addition, the Activity result in [2] is “Non-toxic”. Moreover, the inhibition in [5] turned out to be 49.8%.
Take `O=C(Cn1c(=O)sc2cc(C(=O)c3ccccc3)ccc21)Nc1ccccc1`: the inhibition in vivo at 100 mg/kg was determined as 3.5% in data set [1], 17.3% in data set [4], 12.5% in data set [7] and 3.6% in [8]. Besides, the Activity result in [2] is “Non-toxic”. The inhibition was 6% in data set [3], 40.4% in data set [5] and 1.47% in data set [9].
Take `Cc1cccc(NC(=O)Cn2c(=O)sc3cc(C(=O)c4ccccc4)ccc32)n1`: the inhibition entry in data set [1], in data set [4], in data set [5], in data set [6], in data set [7] and in [8] was “inactive” throughout. Also, the inhibition entry in data set [9] was “inactive”. In data set [2], the Activity result is on record as “Toxic”. Moreover, in data set [3], the inhibition was found to be 26%.
For `O=C(Cn1c(=O)sc2cc(C(=O)c3ccccc3Cl)ccc21)Nc1ccccn1`, the inhibition entry in [1], in data set [6], in [7] and in data set [8] was “inactive” each time. Also, in [2], the Activity entry is listed as “Non-toxic”. Further, the inhibition in data set [3] worked out at 3%; in data set [5] it was 45.2%; in data set [9], 28.9%. Moreover, the inhibition in vivo at 100 mg/kg in data set [4] came out at 15.5%.
For `Cc1ccnc(NC(=O)Cn2c(=O)sc3cc(C(=O)c4ccccc4Cl)ccc32)c1`, the inhibition in vivo at 100 mg/kg in data set [1] amounted to 3.5%; in [4], 8.1%; in data set [6], 3.7%; in [7] it was 5.1%; in data set [8], 3.8%. The Activity result in data set [2] was “Toxic”. Also, the inhibition was found to be 11% in [3] and 10.1% in [5]. In data set [9], the inhibition result was “inactive”.
On to `Cc1cccc(NC(=O)Cn2c(=O)sc3cc(C(=O)c4ccccc4Cl)ccc32)n1`, for which the inhibition entry in [1], in [6], in data set [7] and in data set [8] was “inactive” throughout. Also, the Activity entry in data set [2] is on record as “Non-toxic”. The inhibition in data set [3] worked out at 28%; in data set [5], 9.84%; in data set [9], 2.21%. The inhibition in vivo at 100 mg/kg in [4] was determined as 15.9%.
Regarding `CC(=O)Oc1ccccc1C(=O)O` [ASPIRIN], in data set [2], the Activity result was “Toxic”. For the same molecule, the inhibition in vivo at 100 mg/kg in data set [4] is 50.1%.
For the molecule `CS(=O)(=O)c1ccc(-c2cc(Br)sc2-c2ccc(F)cc2)cc1`, in data set [5], the inhibition is 100%.
Regarding `O=C(Cn1c(=O)sc2cc(C(=O)c3ccccc3Cl)ccc21)Nc1ccc(Cl)cc1`, the inhibition in vivo at 100 mg/kg in data set [1] is 28.4%; in data set [4] it was 47.3%; in [6], 33.2%; in data set [7], 31.9%; in data set [8] it was 25.8%. Further, in [2], the Activity entry is given as “Non-toxic”. For the same molecule, in data set [3], the inhibition entry is “inactive”. Further, the inhibition worked out at 39.2% in data set [5] and 53.1% in [9].
As to `O=C(Cn1c(=O)sc2cc(C(=O)c3ccccc3F)ccc21)Nc1ccc(Cl)cc1`, the inhibition in vivo at 100 mg/kg in data set [1] was 29%; in [4], 54.3%; in data set [6] it was 31.7%; in [7], 30.3%; in data set [8], 25.9%. In data set [2], the Activity entry is on record as “Non-toxic”. The inhibition entry in [3] and in data set [9] was “inactive” each time. In data set [5], the inhibition stood at 10.4%.
Regarding `Cc1cccc(NC(=O)Cn2c(=O)sc3cc(C(=O)c4ccccc4F)ccc32)n1`, the inhibition in vivo at 100 mg/kg in [1] worked out at 3.7%; in [4] it was 22.2%; in [6] it was 2.3%; in data set [7] it was 1.2%; in data set [8], 1.7%. Also, the Activity entry in data set [2] is given as “Non-toxic”. The inhibition amounted to 20% in data set [3], 28% in data set [5] and 12.6% in [9].
As for `Cc1ccnc(NC(=O)Cn2c(=O)sc3cc(C(=O)c4ccccc4F)ccc32)c1`, the inhibition in vivo at 100 mg/kg in data set [1] worked out at 6.8%; in data set [4], 27%; in data set [6] it was 4.6%; in [7], 6.1%; in [8] it was 2.8%. Also, the Activity entry in data set [2] is reported as “Toxic”. The figures for the inhibition in [3] and in data set [5] were 19% and 1.98%, respectively. In data set [9], the inhibition entry was “inactive”.
`O=C(Cn1c(=O)sc2cc(C(=O)c3ccccc3Cl)ccc21)Nc1ccccc1`: the inhibition in vivo at 100 mg/kg in [1] was found to be 11%; in data set [4], 20.6%; in data set [6] it was 10.5%; in [7], 10.9%; in [8] it was 5.3%. The Activity result in data set [2] is reported as “Non-toxic”. Further, the inhibition in [3] is 16%; in data set [5] it was 3.42%. In addition, in [9], the inhibition entry was “inactive”.
For the molecule `O=C(Cn1c(=O)sc2cc(C(=O)c3ccccc3)ccc21)Nc1ccc(Cl)cc1`, the inhibition in vivo at 100 mg/kg came out at 15.2% in data set [1]; 26.5% in data set [4]; 16.5% in data set [6]; 22.9% in data set [7]; 6.6% in data set [8]. Also, in [2], the Activity entry is “Non-toxic”. Moreover, the inhibition result in data set [3] and in data set [5] was “inactive” throughout. The same molecule registered an inhibition in data set [9] of 23.1%.
Take `O=C(Cn1c(=O)sc2cc(C(=O)c3ccccc3)ccc21)Nc1cccc(Cl)c1`: the inhibition in vivo at 100 mg/kg in data set [1] was 10.7%; in [4], 23.1%; in data set [6] it was 8%; in data set [7] it was 10.8%; in data set [8] it was 5.6%. Besides, in data set [2], the Activity result is listed as “Non-toxic”. This molecule showed an inhibition in [3] of 46%. Further, the inhibition entry in [5] and in [9] was “inactive” throughout.

Values taken from ChEMBL document CHEMBL3045772, “Amide derivatives of [6-acyl-2-benzothiazolinon-3-yl] acetic acids as potential analgesic and anti-inflammatory compounds” (Med Chem Res, 2010).
